# According to ChEMBL document CHEMBL5724696, “Autophagy assay results for EUbOPEN Chemogenomics Library” (2024):
# Where “and” joins values, the source holds several entries; their conditions need not be identical. Equal entries are not always repeated.
# Test system: TERT-RPE1
# Experiment: Here: values are normalized to the negative (DMSO; defined as 0% autophagy induction) and positive (250nM Torin1; mTOR inhibitor; defined as maximal inducer of autophagy = 100%) control compounds and represented as % of autophagy induction. […] The impact of autophagy induction on cells is complex and depends on the affected target. As such, the magnitude of a phenotype may not be equally mirrored in the %-value of autophagy induction and vice versa. The dynamics of the induction may indicate the mode of activation: e.g. activation via phosphorylation or a signaling cascade may occur fast, while activation via transcription factors may take considerably longer. […] Of note, treatment concentrations may be sub-optimal for specific compounds, leading to false negative annotations.
# Assay type: functional, Homo sapiens
# Settings: Culturing Media DMEM/F12 (1:1), 1 % Penicillin/Streptomycin, 10% Fetal bovin serum Add-On: No, Screening Media Control DMEM/F12 (1:1), Screening Media Samples DMEM/F12 (1:1)
# [1] = Compound Concentration 1 uM, Timepoint 12 hours
# [2] = Compound Concentration 1 uM, Timepoint 24 hours
# [3] = Compound Concentration 1 uM, Timepoint 36 hours
# [4] = Compound Concentration 1 uM, Timepoint 60 hours
SMILES,autophagy induction [1] [%],autophagy induction [2] [%],autophagy induction [3] [%],autophagy induction [4] [%],other results
COc1ccc(-c2ccc3cc(C(=O)O)ccc3c2)cc1C12CC3CC(CC(C3)C1)C2,-16.1508,-22.2133,-14.1287,30.465,
CCCc1c(OCCCOc2ccc(OCC(=O)O)cc2)ccc(C(C)=O)c1O,-6.598,-4.053,-2.5514,-8.413,
Cc1oc2ccccc2c1Cc1cc(I)c(OCC(=O)O)c(I)c1,,,,,"autophagy induction (Compound Concentration 3 uM, Timepoint 12 hours): -1.169%; autophagy induction (Compound Concentration 3 uM, Timepoint 24 hours): 9.702%; autophagy induction (Compound Concentration 3 uM, Timepoint 36 hours): 19.9109%; autophagy induction (Compound Concentration 3 uM, Timepoint 60 hours): -4.505%"
CN(CCOc1ccc(C[C@H](Nc2ccccc2C(=O)c2ccccc2)C(=O)O)cc1)c1ccccn1.O,-1.212,-2.25,0.5142,-9.85,
OC(c1ccc(-c2ccc(CN3CCN(Cc4ccncc4)CC3)cc2)c(F)c1)(C(F)(F)F)C(F)(F)F,-2.122,-7.771,-2.839,2.172,
COc1cc(O)c(C(CC(=O)N2C[C@H](C)C[C@H](C)C2)c2ccc3c(c2)OCO3)c(OC)c1 (stereo not given in full),,,,,"autophagy induction (Compound Concentration 1 uM, Timepoint 12 hours, 12 h, 1 µM): -12.9989% and -4.38%; autophagy induction (Compound Concentration 1 uM, Timepoint 24 hours, 24 h, 1 µM): -0.5632% and -3.782%; autophagy induction (Compound Concentration 1 uM, Timepoint 36 hours, 36 h, 1 µM): 12.4792% and 2.693%; autophagy induction (Compound Concentration 1 uM, Timepoint 60 hours, 60 h, 1 µM): -12.6071% and -5.875%"
COc1cccc(Cn2cc(C(=O)Nc3ccc(C)c(S(=O)(=O)N4CCOCC4)c3)c(-c3ccc(C)cc3)n2)c1,-3.785,-6.106,-1.342,-4.917,
Cc1cc(SCc2sc(-c3ccc(C(F)(F)F)c(F)c3)nc2C)ccc1OCC(=O)O,-0.9501,-2.27,3.329,-6.099,
Cl.O=C(O)Cc1cccc(OCCCN(Cc2cccc(C(F)(F)F)c2Cl)CC(c2ccccc2)c2ccccc2)c1,-4.945,-7.042,-10.7668,-6.3424,
CC(C)c1ccc(CC(=O)N2CCC[C@@H](c3cccc(OC(C)(C)C(=O)O)c3)C2)cc1,2.269,-2.988,2.286,-0.7623,
CN1CCN(c2ccc(/C=C(\C#N)c3ccccc3Br)cc2)CC1.Cl.Cl,-7.74,-11.503,-8.5159,1.827,
O=C(NCCS(=O)(=O)c1ccc(C(F)(F)F)cn1)c1ccc(Cl)cc1,-3.2973,-5.225,0.4695,10.0166,
CC(=O)Oc1ccc2c(c1)[C@@]1(C)CCC[C@](C)(C(=O)OC(=O)[C@@]3(C)CCC[C@]4(C)c5cc(OC(C)=O)ccc5CC[C@@H]34)[C@@H]1CC2 [ACETYL PODOCARPIC ACID ANHYDRIDE],-1.145,-5.055,-3.143,-11.9263,
CCCCc1oc2ccccc2c1C(=O)c1cc(I)c(OCCN(CC)CC)c(I)c1.Cl [AMIODARONE HYDROCHLORIDE],-399.679,-0.6341,14.6432,-20.4662,
COc1cc2c(cc1CC=C(C)C)C(=O)C[C@@H](c1ccc(O)cc1)O2 [BAVACHININ A],-6.984,-10.3298,-14.6991,1.68,
CC(C)(O)c1cn(-c2ccc(-c3cccc(S(C)(=O)=O)c3)cc2)c(C(C)(C)c2ccccc2Cl)n1 [BMS-779788],-11.1228,-2.718,17.5149,-24.6575,
C=C1/C(=C\C=C2/CCC[C@]3(C)[C@@H]([C@H](C)CCCC(C)(C)O)CC[C@@H]23)C[C@@H](O)C[C@@H]1O [CALCITRIOL],36.7455,-4.807,11.5028,-14.2726,
O=C(O)c1ccnc(N2CC(O)(c3ccc(OCc4c(-c5c(Cl)cccc5Cl)noc4C4CC4)cc3Cl)C2)c1 [CILOFEXOR],6.577,4.142,10.1768,9.429,
CC(C)(C[C@H]1CN(S(=O)(=O)c2cccc(C(F)(F)F)c2)c2cc(-c3cc(F)cc(OC(F)F)c3)ccc2O1)C(=O)O [CINTIRORGON],-13.5912,-2.372,17.7364,-18.8569,
C[C@H]1[C@H]2CC[C@H]3[C@@H]4CC=C5C[C@@H](N(C)C)CC[C@]5(C)[C@H]4CC[C@]23CN1C [CONESSINE],-9.079,-15.7832,-16.9143,14.1244,
C=C1/C(=C\C=C2/CCC[C@]3(C)[C@@H]([C@H](C)/C=C/[C@H](C)C(C)C)CC[C@@H]23)C[C@@H](O)C[C@@H]1O [DOXERCALCIFEROL],-0.6335,-0.7736,0.8774,-4.588,
CSc1ccc(C(=O)/C=C/c2cc(C)c(OC(C)(C)C(=O)O)c(C)c2)cc1 [ELAFIBRANOR],-15.4717,-8.668,8.143,-14.713,
CC(C)c1c(CN(C)C(C)Cc2ccccc2)n(C)n(-c2ccccc2)c1=O (stereo not given) [FAMPROFAZONE],-9.526,-5.45,-2.084,-36.1562,
COC(=O)/C=C/c1cccc(N(Cc2ccc(-c3ccc(N(C)C)cc3)cc2)C(=O)C2CCCCC2)c1 [FEXARAMINE],-11.8732,0.4959,16.8927,-24.9579,
CCc1ccc(N(CC(C)C)S(=O)(=O)c2ccc(OCC3CCOCC3)c(CO)c2)cc1 [GSK2981278],1.382,-2.385,-1.59,5.376,
CCCCCCCN(CCc1ccc(SC(C)(C)C(=O)O)cc1)C(=O)Nc1ccc(F)cc1F [GSK-9578],-3.328,-4.346,-1.192,-5.756,
CC(C)(Sc1ccc(CCN(CCCCC2CCCCC2)C(=O)NC2CCCCC2)cc1)C(=O)O [GW7647],-14.4765,-1.331,15.0253,-17.5748,
Cc1cc(SCc2sc(-c3ccc(C(F)(F)F)cc3)nc2C)ccc1OCC(=O)O [GW501516],35.2172,-7.412,9.218,-19.4944,
Cc1nc(-c2ccc(C(F)(F)F)cc2)sc1C(=O)NCc1ccc(OC(C)(C)C(=O)O)cc1 [GW590735],-16.082,-2.956,16.0196,-2.481,
O=C(O)CCCc1cc2cc(Cl)ccc2n1S(=O)(=O)c1ccc2ncsc2c1 [LANIFIBRANOR],-95.7021,-0.9693,14.6224,-20.9711,
